Measured values taken from ChEMBL document CHEMBL1127093, “Competitive NMDA receptor antagonists: synthesis of -ketophosphonate-substituted piperidine carboxylic acid derivatives” (Bioorg Med Chem Lett, 1993).

molecular target: Glutamate NMDA receptor; assay: Binding potency for NMDA site of the glutamate receptor complex using rat brain cortical membranes in a competitive binding assay with [3H]CPP as the radioligand; format: cell membranes, Membrane

Point of comparison: `O=C(CP(=O)(O)O)C1=CCCN[C@H]1C(=O)O`, IC50 7.6 nM. Against it:
- O=C(CP(=O)(O)O)[C@H]1CCCN[C@H]1C(=O)O — 5.3-fold higher, 40 nM
- C[C@]1(C(=O)CP(=O)(O)O)CCCN[C@H]1C(=O)O — 42-fold higher, 320 nM
- C[C@]1(C(=O)CP(=O)(O)O)C=CCN[C@H]1C(=O)O — 2.4-fold lower, 3.2 nM
- C[C@@H]1CCN[C@@H](C(=O)O)[C@H]1C(=O)CP(=O)(O)O — 2-fold higher, 15 nM
